Data reported in a compilation of properties of binary mixtures (doi:10.1021/acs.jced.3c00374).

Assay: xn = mol fraction of the nth substance listed
Conditions: 100 kPa

OCCNCCO + CCCC[n+]1ccn(C)c1.N#C[S-]
x2 = 0
Conditions	speed of sound [m/s]
288.15 K	1761.3
308.15 K	1700.6
318.15 K	1675.6

CCCC[n+]1ccn(C)c1.N#C[S-] + OCCNCCO
speed of sound [m/s]
Conditions	x1 = 0.1008	x1 = 0.2103	x1 = 0.2993	x1 = 0.4027	x1 = 0.5131	x1 = 0.6087	x1 = 0.7102	x1 = 0.8009	x1 = 0.9102	x1 = 1
288.15 K	1764.4	–	1770.6	1773.9	1777.3	–	1783.5	1786.3	1789.8	1792.6
298.15 K	1732.8	1737	–	1744.5	1748.7	1752.4	–	–	1764	1767.5
308.15 K	1704.9	1709.6	–	1717.8	1722.5	–	1731	–	1739.6	1743.4
318.15 K	1680.4	1685.6	1689.8	1694.8	1700	1704.6	1709.4	1713.7	–	–
